Laboratory results published in patent US20240315993A1, “ANTIPARASITIC COMPOUNDS” (Intervet Inc., priority 2021, published 2024).

Columns and labels:
[1] = system: Adult fleas (Ctenocephalides felis); test: Flea contact assay; details: 48 h, read-out: flea inhibition (% of dead+damaged fleas)
Description: Adult fleas (Ctenocephalides felis) were exposed to filter paper impregnated with declining concentrations of a test compound (dissolved in a DMSO-emulsifier-deionized water mixture). After approximately 48 hours of continuous contact exposure, flea inhibition (% of dead+damaged fleas per test concentration) was assessed. The vitality of used parasites was confirmed in negative control groups (i.e., an untreated control and a solvent control).

[2] = system: larvae of Rhipicephalus microplus isolates with known resistance profiles; test: Tick larvae resistance assay (larval immersion test, LIT)
Description: A tick resistance assay (i.e., larval immersion test, LIT) was carried out using larvae of several Rhipicephalus microplus isolates with known resistance profiles (i.e.: fully susceptible; resistant to dieldrin, coumaphos, DDT, chlorpyriphos, flumethrin, cypermethrin, amitraz, fluazuron).
Tick larvae (Rhipicephalus microplus) were immersed for approximately 3 minutes in test compound solution. Tick mortality was assessed approximately 24 hours after contact exposure. The vitality of used parasites was confirmed in negative control groups (i.e., an untreated control and a solvent control).

[3] = system: Fly larvae I (Lucilia cuprina); test: Fly larvae contact/feeding assay; details: 48 h, read-out: Inhibition of fly larvae development
Description: Fly larvae I (Lucilia cuprina) were grown in medium spiked with declining concentrations of a test compound (dissolved in a DMSO-emulsifier-deionized water mixture). Inhibition of fly larvae development (%) was assessed after approximately 48 hours of continuous exposure. The vitality of used parasites was confirmed in negative control groups (i.e., an untreated control and a solvent control).

[4] = system: Rhipicephalus appendiculatus; test: Cattle - efficacy against multi-host ticks (Rhipicephalus appendiculatus); type: in vivo; details: for effective in treating existing tick infestations: 5 mg/kg, both administration routes (topical, subcutaneous)
Description: Cattle were treated subcutaneously or topically (pour-on) at a dose of 5 mg/kg bodyweight of a test compound (Day 0). As subcutaneous formulation NMP 60%/PEG300 40% was used, and as pour-on formulation DMA 92%/DEET 8% was used. Cattle of the negative control group received only the formulation excipients of both formulations (SC, pour-on).
Cattle were locally infested with 30 to 40 unfed adult ticks each of Rhipicephalus appendiculatus and Dermacenter variabilis (for both species sex ratio 1:1), by placing the ticks in an ear sleeve (R. appendiculatus) or a stockinet patch attached to the body side (D. variabilis) once before treatment, and at different time points after treatment. Free (i.e., non-attached ticks) were removed from ear sleeves/stockinet patches two days after each infestation and were excluded from the efficacy calculation.
Compounds with efficacy ≥80 percent were found active.

[5] = system: mobile sea lice stages of Lepeophtheirus salmonis-isolates with known resistance profiles; test: Sea lice resistance assay
Description: A sea lice resistance assay was carried out using mobile sea lice stages (i.e., pre-adults, adults) of several Lepeophtheirus salmonis-isolates with known resistance profiles (i.e.: fully susceptible, resistant to azametiphos (OP), emamectin benzoate (ML), deltamethrin (SP). Sea lice were exposed to seawater spiked with declining concentrations of a test compound (dissolved in a PEG300/sea-water mixture). Sea lice inhibition (% of dead+damaged sea lice) was assessed after approximately 1, 24 and 48 hour/s of continuous exposure in comparison to a negative (solvent) control group.

[6] = system: Mobile stages of sea lice (pre-adults, adults of Caligus rogercresseyi); test: Adult Caligus rogercresseyi sea lice contact assay
Description: Mobile stages of sea lice (i.e., pre-adults, adults of Caligus rogercresseyi) were exposed to seawater spiked with declining concentrations of a test compound (dissolved in a PEG sea-water mixture). Sea lice inhibition (% of dead+damaged sea lice) was assessed after approximately 1, 24 and 48 hours of continuous exposure in comparison to a negative (solvent) and untreated control group.

[7] = In vitro test of rain fastness; type: physicochemical; details: 5% solution in Miglyol 840 on rabbit hide, 4 hours, then 30 minutes in water
Description: In addition to good absorbance, the composition according to the invention has a high resistance to water. After applying a 5% solution of Compound 453 in Miglyol 840 to rabbit hide and allowing to sit for 4 hours, the sample was soaked in water for 30 minutes.

[8] = system: Lepeophtheirus salmonis; test: Salmon - in vivo efficacy against sea lice using in-feed administration; details: for prophylactic efficacy against re-infestation: 1 mg/kg in feed for 7 days
Description: Commercial fish feed pellets were coated with formulated test compound. As formulation DMSO 5%/fish oil 95% was used. Salmon (Salmo solar) were treated orally with 1 mg/kg fish biomass via coated feed for 7 consecutive days. Salmon of the negative control groups received only feed coated with the excipients of the formulation.
Fish of the therapeutic groups were infested with Lepeophtheirus salmonis copepodids twice before treatment (around day −28 and day −3).
Fish of the prophylactic groups were infested at several time points after treatment in 2-week intervals. The fish were assessed for (pre-)adult sea lice approximately 3 weeks after each re-infestation. At each assessment, all (pre-)adult sea lice were removed from the fish. […] Efficacy is expressed as a % reduction of sea lice in treated groups versus a control group using the Abbott's formula.

[9] = system: Lepeophtheirus salmonis; test: Salmon - in vivo efficacy against sea lice using gavage administration; details: 5 mg/kg once by gavage, counted around day 28
In short: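 Salmon given a single oral gavage of 5 mg/kg in 5% DMSO/95% fish oil on day 0, with vehicle controls. L. salmonis copepodid infestations around days −28, −3 and 17; lice counted by stage around day 28, efficacy as % reduction versus control by Abbott's formula.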

[10] = 5 mg/kg subcutaneous, re-infested after 7 days
[11] = 5 mg/kg subcutaneous, re-infested after 14 days
[12] = 5 mg/kg subcutaneous, re-infested after 21 days
[13] = 5 mg/kg subcutaneous, re-infested after 28 days
[14] = 5 mg/kg subcutaneous, re-infested after 35 days
[15] = 5 mg/kg subcutaneous, therapeutic, Day 2
[16] = 5 mg/kg topical pour-on, re-infested after 7 days
[17] = 5 mg/kg topical pour-on, re-infested after 14 days
[18] = 5 mg/kg topical pour-on, re-infested after 21 days
[19] = 5 mg/kg topical pour-on, re-infested after 28 days
[20] = 5 mg/kg topical pour-on, re-infested after 35 days
[21] = 5 mg/kg topical pour-on, therapeutic, Day 2
[22] = 1 mg/kg fish biomass via coated feed for 7 consecutive days

O=C(Nc1ccc(F)cc1F)c1cc(NC(=O)[C@H]2[C@H](c3ccc(F)c(Cl)c3)C2(Cl)Cl)ccc1Cl [Compound 197]
inhibition at 1000 ppm [1]: 80%
LC50 ([2]; isolate resistant to Coumaphos, Flumethrin, Cypermethrin): 0.343 ppm
LC50 ([2]; isolate resistant to Coumaphos, Flumethrin, Cypermethrin, Amitraz): 0.375 ppm
LC50 ([2]; isolate resistant to DDT, Dieldrin, Coumaphos): 0.346 ppm
LC50 ([2]; isolate resistant to DDT, Dieldrin, Coumaphos, Chlorpyriphos): 0.335 ppm
LC50 ([2]; isolate resistant to Dieldrin, Coumaphos, Fluazuron): 0.270 ppm
LC50 ([2]; isolate: Fully susceptible): 0.288 ppm
inhibition at 100 ppm [3]: 80%
efficacy ≥80 percent against Rhipicephalus appendiculatus [4, 10]: prophylactic efficacy
efficacy ≥80 percent against Rhipicephalus appendiculatus [4, 11]: prophylactic efficacy
efficacy ≥80 percent against Rhipicephalus appendiculatus [4, 12]: prophylactic efficacy
efficacy ≥80 percent against Rhipicephalus appendiculatus [4, 13]: prophylactic efficacy
efficacy ≥80 percent against Rhipicephalus appendiculatus [4, 14]: prophylactic efficacy
efficacy ≥80 percent against Rhipicephalus appendiculatus [4, 15]: therapeutic efficacy
efficacy ≥80 percent against Rhipicephalus appendiculatus [4, 16]: prophylactic efficacy
efficacy ≥80 percent against Rhipicephalus appendiculatus [4, 17]: prophylactic efficacy
efficacy ≥80 percent against Rhipicephalus appendiculatus [4, 18]: prophylactic efficacy
efficacy ≥80 percent against Rhipicephalus appendiculatus [4, 19]: prophylactic efficacy
efficacy ≥80 percent against Rhipicephalus appendiculatus [4, 20]: prophylactic efficacy
efficacy ≥80 percent against Rhipicephalus appendiculatus [4, 21]: therapeutic efficacy
effective in treating existing tick infestations [4]: 100%

O=C(Nc1ncc(F)cc1F)c1cc(NC(=O)[C@H]2[C@H](c3cc(Cl)cc(Cl)c3)C2(Cl)Cl)ccc1Cl [Compound 453]
effectiveness against sensitive isolate and multi-resistant isolate [5]: equally effective
EC50 ([5]; multi-resistant isolate, after 24 hours): 1.96 ppb
EC50 ([5]; multi-resistant isolate, after 48 hours): 0.64 ppb
EC50 ([5]; sensitive isolate, after 24 hours): 1.20 ppb
EC50 ([5]; sensitive isolate, after 48 hours): 0.29 ppb
EC50 ([6]; after 24 hours): 0.072 ppb
EC50 ([6]; after 48 hours): 0.035 ppb
presence of Compound 453 in the water [7]: below the detection limit
weight loss after soaking in water [7]: 4%
therapeutic efficacy against (pre-)adult sea lice [8, 22]: 100%
therapeutic efficacy against juvenile sea lice [8, 22]: 100%
prophylactic efficacy against re-infestation ([8]; re-infestation D14): 100%
prophylactic efficacy against re-infestation ([8]; re-infestation D28): 99.9%
prophylactic efficacy against re-infestation ([8]; re-infestation D42): 86.0%
efficacy ≥80 percent against Rhipicephalus appendiculatus [4, 10]: prophylactic efficacy
efficacy ≥80 percent against Rhipicephalus appendiculatus [4, 11]: prophylactic efficacy
efficacy ≥80 percent against Rhipicephalus appendiculatus [4, 12]: prophylactic efficacy
efficacy ≥80 percent against Rhipicephalus appendiculatus [4, 13]: prophylactic efficacy
efficacy ≥80 percent against Rhipicephalus appendiculatus [4, 14]: prophylactic efficacy
efficacy ≥80 percent against Rhipicephalus appendiculatus [4, 15]: therapeutic efficacy
efficacy ≥80 percent against Rhipicephalus appendiculatus [4, 16]: prophylactic efficacy
efficacy ≥80 percent against Rhipicephalus appendiculatus [4, 17]: prophylactic efficacy
efficacy ≥80 percent against Rhipicephalus appendiculatus [4, 18]: prophylactic efficacy
efficacy ≥80 percent against Rhipicephalus appendiculatus [4, 19]: prophylactic efficacy
efficacy ≥80 percent against Rhipicephalus appendiculatus [4, 20]: prophylactic efficacy
efficacy ≥80 percent against Rhipicephalus appendiculatus [4, 21]: therapeutic efficacy
effective in treating existing tick infestations [4]: 100%
prophylactic efficacy at re-infestation on Day 17 (% reduction vs control) [9]: 100%
